Article PMC8997913, “Lichen Secondary Metabolites Inhibit the Wnt/β-Catenin Pathway in Glioblastoma Cells and Improve the Anticancer Effects of Temozolomide” (Cells, 2022)
“Also recorded” adds a separate entry of the source.

Key:
Assay type in all cases: cell-based, human
[1] = tested on: A-172 cells; experiment: MTT test, A-172; details: for number of living cells: A-172, 1–100 µM; for IC50: A 172, 48 h, three independent experiments, read-out: IC50 [uM] ± SEM A-172
Experimental: Three human GBM cell lines were used in this study, i.e., A-172 (ATCC-CRL-1620), T98G (92090213), and U-138 MG (ATCC-HTB-16). The A-172 and U-138 MG cell lines were purchased from the American Type Culture Collection (ATCC), whereas the T98G cell line was obtained from the European Collection of Authenticated Cell Cultures (ECACC). It has been confirmed by us that O^6-methylguanine-DNA methyltransferase (MGMT), the key factor determining the response to alkylating agents, such as TMZ, is expressed in T98G and U-138 MG cells, whereas in A-172 the expression of MGMT is silenced by promoter methylation. Therefore, the cell lines differ in terms of TMZ sensitivity; A-172 is regarded as TMZ sensitive, whereas T98G and U-138 MG are TMZ resistant.
The cells were grown as monolayers (2D cell culture) in the recommended media: A-172 were grown in the ATCC-formulated DMEM (Merck, Darmstadt, Germany), whereas T98G and U-138 MG cell lines were grown in the ATCC-formulated EMEM (Merck, Darmstadt, Germany). These media were supplemented with FBS (Biowest, Nuaillé, France) to a final concentration of 10%, as well as antibiotics (penicillin and streptomycin) (Merck, Darmstadt, Germany) to the final concentrations of 1%. For the experiments, the amount of FBS was reduced to 5%. The medium for the T98G cell line was supplemented with 2 mM glutamine, 1% nonessential amino acids, and 1% sodium pyruvate (all purchased from Merck, Darmstadt, Germany).
In order to analyze the cytotoxicity of the analyzed lichen secondary metabolites, as well as to establish the appropriate concentrations for further analysis (allowing the survival of >70% of cells), we performed the MTT test. The procedure of the test was described previously. Briefly, the cells (10,000 cells per well) were seeded on the 96-well plates and left for 24 h. Afterwards, the analyzed compounds in the concentration range of 1 µM up to 100 µM were added to the cells and left for 48 h incubation. DMSO treated cells served as control. After the above-mentioned time, the cells were washed twice with warm PBS and incubated for 3 h in the presence of a fresh medium containing MTT salt (0.5 mg/mL). Then the formazan crystals were dissolved in acidic isopropanol. The absorbance was measured at 570 and 690 nm on a Tecan Infinite M200 microplate reader (Grödig, Austria). The experiments were repeated at least three times.

[2] = tested on: Wnt/β-catenin pathway target genes in U-138 MG cells; experiment: qPCR of β-catenin and Wnt target genes, U-138 MG; details: 48 h; for expression of the Wnt target genes: co-treatment with TMZ 100 µM
Experimental: (§1) Based on the MTT test, the lichen secondary metabolite concentrations allowing the survival of more than 70% of cells were chosen for the subsequent experiments. The compounds were added as follows: A-172 cells—atranorin 25 µM, caperatic acid 50 µM, physodic acid 25 µM, squamatic acid 25 µM, salazinic acid 50 µM, and lecanoric acid 100 µM; T98G cells—atranorin 50 µM, caperatic acid 100 µM, physodic acid 25 µM, squamatic acid 50 µM, salazinic acid 100 µM, and lecanoric acid 100 µM; U-138 MG cells—atranorin 25 µM, caperatic acid 50 µM, physodic acid 25 µM, squamatic acid 50 µM, salazinic acid 50 µM, and lecanoric acid 100 µM. As far as the TMZ treatment is concerned, it was added in the concentrations depending on the MGMT expression and methylation status, i.e., TMZ 30 µM was added to the A-172 cell line, and TMZ 100 µM was added to both the T98G and U-138 MG cell lines. In the case of the 2D culture, the cells were treated with the compounds 24 h after seeding, whereas, in regard to 3D culture, 5 days were needed to form spheroids. All subsequent analyses were performed 48 h after treatment.
The Universal RNA Purification Kit (EURx, Gdańsk, Poland) was used for total RNA isolation from the A-172, T98G, and U-138 MG cells, and the Revert-Aid First Strand cDNA Synthesis kit (Fermentas, Burlington, ON, Canada) was chosen for cDNA synthesis. Quantitative real-time PCR (qPCR) was performed using Hot FIREPol EvaGreen qPCR Mix Plus (Solis Biodyne, Tartu, Estonia) and LightCycler 96 (Roche Diagnostics GmbH, Mannheim, Germany). Primer sequences were previously published and their synthesis was performed at the Institute of Biochemistry and Biophysics, Warsaw, Poland. The protocol started with 15 min enzyme activation at 95 °C, followed by 40 cycles of 95 °C for 15 s; appropriate annealing temperature for 20 s; 72 °C for 40 s and the final elongation at 72 °C for 5 min. Melting curve analysis was used to confirm the generation of a single amplification product. TATA box-binding protein (TBP), a component of the DNA-binding protein complex TFIID, served as the endogenous RNA control. The results were expressed as N-fold differences in the gene expression relative to the TBP gene. The ΔΔCt method was used for fold-change calculation. All samples were analyzed in triplicate, and the reaction was repeated at least twice.

[3] = tested on: T98G cells; experiment: Cell cycle distribution, flow cytometry, T98G; details: 48 h
Experimental: as §1
The Muse Cell Cycle Kit and the Muse Cell Cycle Software (both Merck, Darmstadt, Germany) were used to quantitatively measure the percentage of cells in the G0/G1, S, and G2/M phases of the cell cycle. The assay utilizes the nuclear DNA intercalating stain propidium iodide and RNAse A in a formulation. Propiodium iodide discriminates cells at different stages of the cell cycle, based on differential DNA content, while the presence of RNAse increases the specificity of DNA staining. Briefly, the cells were seeded on 6-well plates (100,000 cells per well) and incubated for 24 h. Afterward, the lichen secondary metabolites were added to the concentrations chosen based on the MTT test, allowing >70% of cell survival. 0.5% DMSO and 100 nM topotecan were used as negative and positive controls, respectively. The analysis was performed after a 48 h incubation with lichen secondary metabolites and started with washing the cells with PBS, followed by cell fixation with ice-cold ethanol and overnight incubation at −20 °C. Following steps included cell re-washing with PBS, then a 30 min incubation in the dark with propiodium iodide-RNAse A formulation, and a final analysis on Muse™ Cell Analyzer (Merck, Darmstadt, Germany).

[4] = tested on: T98G cells; experiment: Apoptosis, caspase-3/7 and 7-AAD flow cytometry, T98G; details: 48 h, topotecan 100 nM
Experimental: as §1
The fluorescent-based analysis of apoptosis using Muse® Caspase-3/7 Kit was performed in order to analyze the percentage of live, early, and late apoptotic; total apoptotic; and dead cells in A-172, T98G, and U-138 MG GBM cells treated with lichen secondary metabolites. The principle of the method relies on the measurement of the activity of executioner caspases, i.e., caspase-3 and caspase-7, as well as analyzing the integrity of the cell membrane with the use of a dead cell marker 7-AAD. Cell seeding and treatment followed the same protocol as for cell cycle or ROS generation analysis, while the subsequent procedures were performed according to the manufacturer’s recommendations.

[5] = mRNA vs DMSO control, single agent

COC(=O)c1c(C)cc(OC(=O)c2c(C)cc(O)c(C=O)c2O)c(C)c1O [Atranorin]
number of living cells ([1]; 48 h): reduced the number of living cells in the whole analyzed concentration range
IC50 ([1]; Homo sapiens): 90.9 ± 3.7 µM
Axin2 expression [2, 5]: downregulated
number of cells in G0/G1 phases vs control [3]: slightly increased
number of cells in S phase vs control [3]: reduced

CCCCCCCCCCCCCCC(C(=O)O)C(O)(CC(=O)OC)C(=O)O (stereo not shown) [Caperatic acid]
IC50 ([1]; Homo sapiens): 80.1 ± 1.88 µM
viability at 100 µM ([1]; Homo sapiens, A-172, highest tested concentration (100 µM), 48 h): 11.7 ± 5.51%
expression of the Wnt target genes [2]: huge downregulatory effect
Axin2 expression [2, 5]: downregulated
NEDD9 expression ([2]; mRNA vs DMSO control, single agent, TMZ 100 µM): downregulated
number of cells in G0/G1 phases vs control [3]: diminished

Cc1cc(OC(=O)c2c(C)cc(O)cc2O)cc(O)c1C(=O)O [Lecanoric acid]
number of apoptotic cells vs control [4]: significant increase; also recorded: induced apoptosis
cells killed ([1]; A-172, 100 µM, 48 h): ~ 30%
IC50 ([1]; Homo sapiens): > 100 µM

Cc1cc(O)c(C=O)c2c1C(=O)Oc1c(CO)c(O)c3c(c1O2)C(O)OC3=O (stereo not shown) [Salazinic acid]
number of apoptotic cells vs control [4]: significant increase; also recorded: induced apoptosis
expression of the Wnt target genes [2]: huge downregulatory effect
BIRC5 expression [2, 5]: diminished
CCND1 expression [2, 5]: downregulated CCND1 expression by around half
number of cells in G0/G1 phases vs control [3]: slightly increased
number of cells in S phase vs control [3]: reduced
percentage of cells in G2/M phases vs control [3]: diminished

COc1cc(C)c(C(=O)Oc2cc(C)c(C(=O)O)c(O)c2C)c(O)c1C(=O)O [Squamatic acid]
number of apoptotic cells vs control [4]: significant increase; also recorded: induced apoptosis
number of living cells ([1]; 48 h): reduced the number of living cells in the whole analyzed concentration range
IC50 ([1]; Homo sapiens): 84.9 ± 3.62 µM
Axin2 expression [2, 5]: downregulated
